We go through 16 compounds from patent US9562035B2, “Benzamide derivative useful as FASN inhibitors for the treatment of cancer” (Janssen Pharmaceutica NV, priority 2013, dated 2017).

Assay type in all cases: cell-based
Assay [1] relates to PC-3M-Luc-C6 prostate cells. Description: In Vitro PC-3M-Luc-C6 Prostate Cell Proliferation Assay in Lipid Reduced Medium. Conditions: read-out: PC-3M-Luc-C6 Cells pIC50 (μM) (converted), lipid reduced serum, 96 h. As for the experimental part:
PC-3M-Luc-C6 prostate cells were obtained from Xenogen Corporation. Cells were maintained in MEM supplemented with 10% Fetal Calf Serum (FCS, Hyclone), 2 mM glutamine, 1 mM sodium pyruvate, 1% BME vitamins (available from for example, Sigma Aldrich), 0.1 mM non Essential Amino Acid and 50 μg/ml Gentamicin. The cells were passaged twice a week.
1000 PC-3M-Luc-C6 prostate cells (Xenogen) were seeded in a 384-well black with clear bottom plate (costar 3712BC) in 40 μl MEM, 10% LRS (Hyclo ne), 50 μg/ml Gentamicin, 2 mM Glutamine, 1 mM Sodium pyruvaat, 1% BME vitamins and 0.1 mM non Essential Amino Acid and incubated at 37° C., 5% CO2. The next day 10 μl test compound/DMSO diluted in medium was added (3E-5M, 1E-5M, 3E-6M, 1E-6M, 3E-7M, 1E-7M, 3E-8M, 1E-8M final concentration). Compounds were tested in duplicate. After 96 h incubation at 37° C., 5% CO2 25 μl ATP-glow mix was added. The plate was incubated for 30 min at 37° C. and luminescence was measured with the Envision.
(§1) pIC50 values were calculated as follows. Raw data generated by the instruments were normalized to % Controlmin values, which were calculated as: % Controlmin=100*(x−mLC)/(mHC−mLC),
(§2) where mLC and mHC are the means of the low control wells and high control wells on the plate, after manual exclusion of outliers. The relation between the % Controlmin values and concentration was fitted to a 4-parameter logistic curve using a non-linear least squares regression method to determine the pIC50 value. Outlying data points were excluded manually to get a correct fit. The pIC50 corresponds to −log 10(IC50), if the IC50 is expressed in molar units (http://www.ncbi.nlm.nih.gov/books/NBK91994). The IC50 parameter was always determined by non-linear regression, but one or more of the other parameters may have been held fixed on a relevant input value, such as 0 for the bottom values.
(§3) For dose response curves with FASN inhibitors in LNCaP_Vancouver or PC-3M-Luc_C6 cells the curves bottom out around 30 to 40% of the control value. A standard fit PL2, forcing the lower bound to this level was used.
(§4) Representative compounds of the present invention were tested according to the procedure as described in Biological Example 4a and 4b above, with results as listed in Table BIO-4, below.

In assay [2] the test system is LNCaP_Vancouver prostate cells. Description: In Vitro LNCaP Vancouver Prostate Cell Proliferation Assay in Lipid Reduced Medium. Conditions: lipid reduced serum, 96 h, read-out: Vancouver Cells pIC50 (converted). As for the experimental part: LNCaP_Vancouver prostate cells were obtained from the Vancouver Prostate Cancer Centre. Cells were maintained in RPMI-1640, 10% Fetal Calf Serum (FCS, Hyclone), 2 mM glutamine and 50 μg/ml Gentamicin.
For the proliferation experiment 1500 LNCaP_Vancouver cells per well were seeded in a 384-well black with clear bottom plate (costar 3712BC) in 40 μl RPMI-1640, 10% Lipid reduced serum (LRS, Hyclone), 50 μg/ml Gentamicin and 2 mM Glutamine and incubated at 37° C., 5% CO2. The next day 10 μl of test compound/DMSO diluted in medium was added (3E-5M, 1E-5M, 3E-6M, 1E-6M, 3E-7M, 1E-7M, 3E-8M, 1E-8M final concentration). Compounds were tested in duplicate. After 96 h incubation at 37° C., 5% CO2 25 μl ATP-glow mix was added. The plate was incubated for 30 min at 37° C. and luminescence was measured with the Envision.
as §1, §2, §3, §4

The test system of a further assay is A2780 ovarian cells. Description: A2780 Ovarian Cell Proliferation Assay in Lipid Reduced Medium, without Palmitate. Conditions: Homo sapiens, A2780; lipid reduced medium, without palmitate, 96 h, MTT; read-out: Proliferation A2780 w/o Palmitate pIC50 (converted). In outline: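 A2780 cells were seeded in 10% FCS medium and switched next day to 10% lipid-reduced serum without palmitate. Compounds at 0.01–30 μM were added with 0.2% DMSO, 0.2% fatty-acid-free BSA and 0.25% ethanol final. After 96 h, MTT absorbance at 544 nm was normalized to plate controls, and IC50/pIC50 came from a 4-parameter logistic fit.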

With `Cc1ccc(C(=O)N2CC(c3ccc(-c4cnn(C)c4)cc3)C2)cc1NC(=O)c1ccc(N2CCOCC2)nc1` [Compound #66, N-(2-methyl-5-(3-(4-(1-methyl-1H-pyrazol-4-yl)phenyl)azetidine-1-carbonyl)phenyl)-6-morpholinonicotinamide], the IC50 in assay [1] is ~0.00813 µM; in assay [2], 29.5 nM; in the assay on A2780 ovarian cells it was ~22.9 nM.
For `CC(C)Nc1ccc(C(=O)Nc2cc(C(=O)N3CCC(c4ccc(-c5cnn(C)c5)cc4)CC3)ccc2N(C)C2CC2)cn1` [Compound 287, N-(2-(cyclopropyl(methyl)amino)-5-(4-(4-(1-methyl-1H-pyrazol-4-yl)phenyl)piperidine-1-carbonyl)phenyl)-6-(isopropylamino)nicotinamide], in that order: 0.186 µM, 977 nM and 676 nM.
As to `CN(C)c1ccc(C(=O)N2CCC(c3ccc(-c4cnn(C)c4)cc3)CC2)cc1NC(=O)c1ccc(Cl)nc1` [Compound 275, 6-chloro-N-(2-(dimethylamino)-5-(4-(4-(1-methyl-1H-pyrazol-4-yl)phenyl)piperidine-1-carbonyl)phenyl)nicotinamide], the IC50 is 0.12 µM in assay [1], 692 nM in assay [2] and 100 nM with A2780 ovarian cells.
As for `CN(c1ccc(C(=O)N2CCC(c3ccc(-c4cnn(C)c4)cc3)CC2)cc1NC(=O)C1CC1)C1CC1` [Compound 288, N-(2-(cyclopropyl(methyl)amino)-5-(4-(4-(1-methyl-1H-pyrazol-4-yl)phenyl)piperidine-1-carbonyl)phenyl)cyclopropanecarboxamide], the IC50 in assay [1] was 3.09 µM; in assay [2], ~9770 nM; in the assay on A2780 ovarian cells it was 5130 nM.
On to `CC(C)Nc1ccc(C(=O)Nc2cc(C(=O)N3CCC(c4ccc(-c5cnn(C)c5)cc4)CC3)ccc2NC2CC2)cn1` [Compound 283, N-(2-(cyclopropylamino)-5-(4-(4-(1-methyl-1H-pyrazol-4-yl)phenyl)piperidine-1-carbonyl)phenyl)-6-(isopropylamino)nicotinamide], for which the IC50 in assay [1] was 0.245 µM; in assay [2] it was 1050 nM; in the assay on A2780 ovarian cells it was 363 nM.
For the compound `Cc1ccc(C(=O)N2CC(c3ccc(-c4cnn(C)c4)cc3)C2)cc1NC(=O)c1ccc(N(C)C(C)C)nc1` [Compound #78, 6-(isopropyl(methyl)amino)-N-(2-methyl-5-(3-(4-(1-methyl-1H-pyrazol-4-yl)phenyl)azetidine-1-carbonyl)phenyl)nicotinamide], the IC50 is ~0.00871 µM in assay [1], ~34.7 nM in assay [2] and ~29.5 nM with A2780 ovarian cells.
For `CC(C)Nc1ccc(C(=O)Nc2cc(C(=O)N3CCC(c4ccc(-c5cnn(C)c5)cc4)CC3)ccc2N(C)C(C)C)cn1` [Compound 276, N-(2-(isopropyl(methyl)amino)-5-(4-(4-(1-methyl-1H-pyrazol-4-yl)phenyl)piperidine-1-carbonyl)phenyl)-6-(isopropylamino)nicotinamide], in that order: 0.49 µM, 1380 nM and ~257 nM.
In the case of `CC(C)N(C)c1ccc(C(=O)N2CCC(c3ccc(-c4cnn(C)c4)cc3)CC2)cc1NC(=O)c1ccc(Cl)nc1` [Compound 274, 6-chloro-N-(2-(isopropyl(methyl)amino)-5-(4-(4-(1-methyl-1H-pyrazol-4-yl)phenyl)piperidine-1-carbonyl)phenyl)nicotinamide], the IC50 in assay [1] is 0.776 µM; in assay [2], 1950 nM; in the assay with A2780 ovarian cells, ~302 nM.
As for `CC(C)Nc1ccc(C(=O)Nc2cc(C(=O)N3CCC(c4ccc(-c5cnn(C)c5)cc4)CC3)ccc2NC(C)C)cn1` [Compound 284, 6-(isopropylamino)-N-(2-(isopropylamino)-5-(4-(4-(1-methyl-1H-pyrazol-4-yl)phenyl)piperidine-1-carbonyl)phenyl)nicotinamide], the IC50 in assay [1] was 0.195 µM; in assay [2], 1020 nM; with A2780 ovarian cells, ~316 nM.
In the case of `COCCN(C)c1ccc(C(=O)N2CCC(c3ccc(-c4cnn(C)c4)cc3)CC2)cc1NC(=O)C1CC1` [Compound 278, N-(2-((2-methoxyethyl)(methyl)amino)-5-(4-(4-(1-methyl-1H-pyrazol-4-yl)phenyl)piperidine-1-carbonyl)phenyl)cyclopropanecarboxamide], the IC50 is 2.14 µM in assay [1], 6170 nM in assay [2] and 1780 nM in the assay with A2780 ovarian cells.
Regarding `CC(C)Nc1ccc(C(=O)Nc2cc(C(=O)N3CCC(c4ccc(-c5cnn(C)c5)cc4)CC3)ccc2N(C)C)cn1` [Compound 280, N-(2-(dimethylamino)-5-(4-(4-(1-methyl-1H-pyrazol-4-yl)phenyl)piperidine-1-carbonyl)phenyl)-6-(isopropylamino)nicotinamide], the IC50 was 0.0724 µM in assay [1], 372 nM in assay [2] and 77.6 nM in the assay with A2780 ovarian cells.
For `CNc1ccc(C(=O)N2CCC(c3ccc(-c4cnn(C)c4)cc3)CC2)cc1NC(=O)c1ccc(NC(C)C)nc1` [Compound #279, 6-(isopropylamino)-N-(5-(4-(4-(1-methyl-1H-pyrazol-4-yl)phenyl)piperidine-1-carbonyl)-2-(methylamino)phenyl)nicotinamide], in that order: 0.0355 µM, 263 nM and 41.7 nM.
On to `CC(C)Nc1ccc(C(=O)Nc2cc(C(=O)N3CCC(c4ccc(-c5cnn(C)c5)cc4)CC3)ccc2N)cn1` [Compound 285, N-(2-amino-5-(4-(4-(1-methyl-1H-pyrazol-4-yl)phenyl)piperidine-1-carbonyl)phenyl)-6-(isopropylamino)nicotinamide], for which the IC50 is 0.126 µM in assay [1], ~537 nM in assay [2] and 58.9 nM in the assay on A2780 ovarian cells.
For `COCCNc1ccc(C(=O)N2CCC(c3ccc(-c4cnn(C)c4)cc3)CC2)cc1NC(=O)C1CC1` [Compound 286, N-(2-((2-methoxyethyl)amino)-5-(4-(4-(1-methyl-1H-pyrazol-4-yl)phenyl)piperidine-1-carbonyl)phenyl)cyclopropanecarboxamide], in that order: 1.82 µM, 4070 nM and 427 nM.
For `COCCN(C)c1ccc(C(=O)N2CCC(c3ccc(-c4cnn(C)c4)cc3)CC2)cc1NC(=O)c1ccc(NC(C)C)nc1` [Compound 281, 6-(isopropylamino)-N-(2((2-methoxyethyl)(methyl)amino)-5-(4-(4-(1-methyl-1H-pyrazol-4-yl)phenyl)piperidine-1-carbonyl)phenyl)nicotinamide], in that order: ~0.776 µM, ~1350 nM and 417 nM.
For `COCCNc1ccc(C(=O)N2CCC(c3ccc(-c4cnn(C)c4)cc3)CC2)cc1NC(=O)c1ccc(NC(C)C)nc1` [Compound 282, 6-(isopropylamino)-N-(2-((2-methoxyethyl)amino)-5-(4-(4-(1-methyl-1H-Pyrazol-4-yl)phenyl)piperidine-1-carbonyl)phenyl)nicotinamide], in that order: 0.17 µM, 1020 nM and 209 nM.
